Reference: patent publication US6605424B1, “Method of detecting inhibitors of agonist-specific desensitization” (Duke University, priority 1989, dated 2003)

Target: T1, βAR kinase (Bos taurus, UniProt P21146)
T1 construct: βAR kinase was purified from bovine cerebral cortex; from tissue; host or cells: bovine cerebral cortex
T1 sequence (P21146 1-689): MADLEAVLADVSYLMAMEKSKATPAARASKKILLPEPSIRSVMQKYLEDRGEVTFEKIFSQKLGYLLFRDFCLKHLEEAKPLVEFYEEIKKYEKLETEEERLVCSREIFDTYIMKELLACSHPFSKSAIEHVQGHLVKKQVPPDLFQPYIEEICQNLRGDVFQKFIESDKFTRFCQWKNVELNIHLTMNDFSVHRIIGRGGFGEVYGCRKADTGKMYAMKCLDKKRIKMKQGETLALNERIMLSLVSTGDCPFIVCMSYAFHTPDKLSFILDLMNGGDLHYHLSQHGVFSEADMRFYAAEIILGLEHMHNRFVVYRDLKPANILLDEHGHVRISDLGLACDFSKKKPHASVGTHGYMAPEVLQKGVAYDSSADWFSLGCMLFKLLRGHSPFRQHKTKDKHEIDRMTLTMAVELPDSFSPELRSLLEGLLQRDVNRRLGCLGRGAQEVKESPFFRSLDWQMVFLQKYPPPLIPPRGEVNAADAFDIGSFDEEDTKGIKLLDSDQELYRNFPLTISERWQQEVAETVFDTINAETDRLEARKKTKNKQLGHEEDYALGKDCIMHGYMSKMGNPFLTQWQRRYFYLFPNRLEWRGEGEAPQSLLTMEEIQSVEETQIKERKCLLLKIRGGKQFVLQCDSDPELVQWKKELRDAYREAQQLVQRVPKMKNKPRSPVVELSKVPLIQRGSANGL
Test: Phosphorylation of rhodopsin (urea-treated rod outer segments) by βAR kinase
Assay type: biochemical, bovine
Method: βAR kinase was purified from bovine cerebral cortex by modification of procedure of Benovic et al (J. Biol. Chem. (1987) 262:9026-9032). Briefly, 250 g of bovine cerebral cortex were homogenized with a Brinkmann tissue disrupter and centrifuged (40,000×g, 30 min). The supernatant was then precipitated with 13-26% ammonium sulfate. This material was initially chromatographed on a Ultrogel AcA34 column equilibrated with 5 mM Tris-HCl, pH 7.5, 2 mM EDTA, 10 μg/ml leupeptin, 5 μg/ml pepstatin, 10 μg/ml benzamidine, 0.2 mM phenylmethylsulfonyl fluoride (buffer A). The peak activity was diluted with an equal volume of buffer A containing 0.04% Triton X-100 before being applied to a DEAE-Sephacel column. Elution was accomplished with a 0-80 mM NaCl gradient in buffer A containing 0.02% Triton X-100. The peak activity was then applied to a CM-Fractogel column and eluted with a 0-100 mM NaCl gradient in buffer A containing 0.02% Triton X-100. The purified kinase is stable at 4° C. for several months. For these studies the βAR kinase preparations were >75% pure.
Rod outer segments were prepared from bovine retinas by stepwise sucrose gradient centrifugation (Wilden et al Biochemistry (1982) 21:3014-3022). Rhodopsin kinase-free rod outer segments were prepared by treatment with 5 M urea (Shichi et al J. Biol. Chem. (1978) 253:7040-7046) and consisted of ˜95% rhodopsin, as assessed by Coomassie Blue staining of sodium dodecyl sulfate-polyacrylamide gels.
Urea-treated rod outer segments were phosphorylated with βAR kinase as follows. Urea-treated rod outer segments (˜4 μg of rhodopsin) were incubated with βAR kinase (˜0.1 μg) for 10-15 min at 30° C. in the presence of 40 mM Tris-HCl, pH 7.4, 10 mM NaCl, 5 mM MgCl2, 1.5 mM EDTA, and 65 μM ATP (˜1 cpm/fmol) (total reaction volume was 40 μl). Reactions were stopped by the addition of 40 μl of sodium dodecyl sulfate sample buffer (see below) followed by sodium dodecyl sulfate-polyacrylamide gel electrophoresis. After autoradiography, the phosphorylated rhodopsin bands were excised and counted.
Sodium dodecyl sulfate-polyacrylamide gel electrophoresis was performed by the method of Laemmli (Nature (1970) 227:680-685) using 10% homogeneous polyacrylamide slab gels. Sample buffer contained 8% sodium dodecyl sulfate, 10% glycerol, 5% 3-mercaptoethanol, 25 mM Tris-HCl, pH 6.5, and 0.003% bromphenol blue. After electrophoresis, gels were dried with a Bio-Rad gel dryer prior to autoradiography.

**Q.** What does the source list for heparin?
**A.** Hill coefficient of inhibition (data of FIG. 1): ~2; IC50 (read-out: IC50 (concentration of compound which gave 50% inhibition of βAR kinase), rhodopsin as substrate): 0.15 µM; IC50 (concentration of compound which gave 50% inhibition of βAR kinase) (rhodopsin as substrate, mean ± S.E.): 0.77 ± 0.10 mg/L
